Data taken from patent publication US10457707B2, “Substituted urea depsipeptide analogs as activators of the CLPP endopeptidase” (priority 2015, dated 2019).
Values after ≈ are worked out from the molar mass of the structure shown. Read-outs that look alike come from different tables or passages of the source. *1 amine or outer side, *2 acyl side, *3 side chain or, on linkers, in order; H or OH if unused. Where a SMILES comes first, the peptide text is derived from it. Bridges are numbered along the chain shown (N, C = ends). [ ]: non-standard residue; d: D form. The star is where a group is joined. ξ: configuration not given here. Phe(3,5-F2) = N[C@@H](Cc1cc(F)cc(F)c1)C(=O)O; NH(4-OCF3-phenyl) = FC(F)(F)Oc1ccc(N*)cc1; Morpholine(3S-CO) = O=C(O)[C@@H]1COCCN1; Pro(4S-Me) = C[C@@H]1CN[C@H](C(=O)O)C1; NH(4-Cl-2-F-phenyl) = Fc1cc(Cl)ccc1N*; Pro(4R-Me) = C[C@H]1CN[C@H](C(=O)O)C1; ξPro(4R-OH) = O=C(O)C1C[C@@H](O)CN1; NMeaThr = CN[C@H](C(=O)O)[C@H](C)O; ξPro(4R-Me) = C[C@H]1CNC(C(=O)O)C1; Hyp = O=C(O)[C@@H]1C[C@@H](O)CN1; NH(4-Et-phenyl) = CCc1ccc(N*)cc1; NMeT = CN[C@H](C(=O)O)[C@@H](C)O; NH(4-Me-phenyl) = Cc1ccc(N*)cc1; aThr = C[C@H](O)[C@H](N)C(=O)O; Pip = O=C(O)[C@@H]1CCCCN1; NMeA = CN[C@@H](C)C(=O)O; X2 = CN1CCc2ccc(N*)cc21; X1 = N#Cc1cc(N*)ccc1F; CO = O=C([*:1])[*:2]

What was measured:
[1] = test system: Streptococcus pyogenes, ATCC 700294; assay: Minimal inhibitory concentration assay (microbroth dilution); format: cell-based
Method in brief: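 CLSI broth microdilution: two-fold serial compound dilutions in appropriate broth, inoculated and incubated aerobically overnight at 37° C. MIC read visually as lowest concentration preventing bacterial growth.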

[2] = test system: Staphylococcus aureus, NRS70; assay: as above; format: cell-based
Method in brief: (§1)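 CLSI broth microdilution; 2-fold series from 200 μM final; inoculum ~10^5 cfu/mL; 37 °C, aerobic, overnight; visual MIC = lowest conc. without growth. The ClpP-inactivated USA 300 strain is the comparator for ClpP-dependent killing.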

[3] = test system: Staphylococcus aureus, ATCC 29213; assay: as above; format: cell-based; settings: ATCC29213, read-out: Minimal Inhibitory Concentrations S. aureus ATCC 29213
Method in brief: as §1

[4] = test system: Bacillus subtilis, ATCC 23857; assay: as above; format: cell-based
Method in brief: as §1

Sa-ClpP = target: T1, Sa-ClpP (Staphylococcus aureus, UniProt Q2G036); assay: ADEP displacement fluorescence polarization assay (FP probe ADEP 2591); format: binding
T1 construct: made in house; host or cells: E. coli BL21(DE3)
T1 sequence (Q2G036 1-195): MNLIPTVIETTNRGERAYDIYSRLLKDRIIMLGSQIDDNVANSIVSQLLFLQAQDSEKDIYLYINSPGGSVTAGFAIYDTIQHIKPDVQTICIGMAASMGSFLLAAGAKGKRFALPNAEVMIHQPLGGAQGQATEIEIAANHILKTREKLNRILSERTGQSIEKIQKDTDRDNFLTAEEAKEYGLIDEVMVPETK
Method in brief: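 Master mix of 15 μM S. aureus ClpP with 50 nM TAMRA-labelled ADEP 2591 probe in Tris-HCl pH 8.0, 2% DMSO, was pre-equilibrated 1 h, then incubated with compound 120 min at room temperature. Polarization (ex 530, em 579 nm) was normalized to 200 μM ADEP 2378 and DMSO controls; four-parameter fits, triplicate.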

[5] = Streptococcus pyogenes, ATCC700294, read-out: Minimal Inhibitory Concentrations S. pyogenes ATCC 700294
[6] = Staphylococcus aureus, NRS70, read-out: Minimal Inhibitory Concentrations S. aureus NRS70
[7] = Bacillus subtilis, ATCC23857, read-out: Minimal Inhibitory Concentrations B. subtilis ATCC 23857
[8] = Streptococcus pyogenes, ATCC700294; read-out: Minimal Inhibitory Concentrations S. pyogenes ATCC 700294
[9] = Staphylococcus aureus, NRS70; read-out: Minimal Inhibitory Concentrations S. aureus NRS70
[10] = Bacillus subtilis, ATCC23857; read-out: Minimal Inhibitory Concentrations B. subtilis ATCC 23857

SMILES	MIC [1, 5] [µM]	MIC [2, 6] [µM]	MIC [3] [µM]	MIC [4, 7] [µM]	IC50 (Sa-ClpP) [µM]	MIC [1, 8] [µM]	MIC [2, 9] [µM]	MIC [4, 10] [µM]	IC50 (Sa-ClpP; displacement of FP probe ADEP 2591 from Sa-ClpP, read-out: ADEP Displacement IC50) [µM]
Cc1ccc(NC(=O)N[C@@H](Cc2cc(F)cc(F)c2)C(=O)N[C@@H]2C(=O)N3C[C@H](O)CC3C(=O)N(C)[C@@H](C)C(=O)N[C@@H](C)C(=O)N3C[C@H](C)CC3C(=O)O[C@H]2C)cc1 (stereo partly drawn) [Compound 31, (S)-3-(3,5-difluorophenyl)-N-((2S,6S,9S,11aS,13R,17S,18S,20aS)-13-hydroxy-2,6,9,10,18-pentamethyl-5,8,11,16,20-pentaoxohexadecahydro-1H,5H,16H-dipyrrolo[2,1-c:2′,1′-l][1]oxa[4,7,10,13]tetraazacyclohexadecin-17-yl)-2-(3-(p-tolyl)ureido)propanamide] ({NH(4-Me-phenyl)-CO}-[Phe(3,5-F2)][aThr][ξPro(4R-OH)][NMeA]A[ξPro(4R-Me)]; ester 2-C)	0.78 (≈ 0.622 µg/mL)	0.39 (≈ 0.311 µg/mL)	0.39 (≈ 0.311 µg/mL)	0.39 (≈ 0.311 µg/mL)	5.8 ± 0.3	–	–	–	–
C[C@@H]1C[C@H]2C(=O)OC[C@H](NC(=O)[C@H](Cc3cc(F)cc(F)c3)NC(=O)Nc3ccc4c(c3)OCO4)C(=O)N3CCC[C@H]3C(=O)N3CCCC[C@H]3C(=O)N[C@@H](C)C(=O)N2C1 [Compound 195, (S)-2-(3-(benzo[d][1,3]dioxol-5-yl)ureido)-3-(3,5-difluorophenyl)-N-((2R,6S,8aS,14aS,20S,23aS)-2,6-dimethyl-5,8,14,19,23-pentaoxooctadecahydro-1H,5H,14H,19H-pyrido[2,1-i]dipyrrolo[2,1-c:2′,1′-l][1]oxa[4,7,10,13]tetraazacyclohexadecin-20-yl)propanamide]	–	–	0.6 (≈ 0.494 µg/mL)	–	5.8 ± 0.2	0.3 (≈ 0.247 µg/mL)	0.6 (≈ 0.494 µg/mL)	0.3 (≈ 0.247 µg/mL)	–
C[C@@H]1C[C@H]2C(=O)O[C@@H](C)[C@H](NC(=O)[C@H](Cc3cc(F)cc(F)c3)NC(=O)Nc3ccc4c(c3)N(C)CC4)C(=O)N3CCC[C@H]3C(=O)N3CCCC[C@H]3C(=O)N[C@@H](C)C(=O)N2C1 [Compound 321, (S)-3-(3,5-difluorophenyl)-2-(3-(1-methylindolin-6-yl)ureido)-N-((2R,6S,8aS,14aS,20S,21S,23aS)-2,6,21-trimethyl-5,8,14,19,23-pentaoxooctadecahydro-1H,5H,14H,19H-pyrido[2,1-i]dipyrrolo[2,1-c:2′,1′-l][1]oxa[4,7,10,13]tetraazacyclo-hexadecin-20-yl)propanamide] ({X2-CO}-[Phe(3,5-F2)][aThr]P[Pip]A[Pro(4R-Me)]; ester 2-C)	0.313 (≈ 0.266 µg/mL)	0.156 (≈ 0.132 µg/mL)	0.313 (≈ 0.266 µg/mL)	0.313 (≈ 0.266 µg/mL)	8.23 ± 0.7	–	–	–	–
C[C@@H]1C[C@H]2C(=O)O[C@@H](C)[C@H](NC(=O)[C@H](Cc3cc(F)cc(F)c3)NC(=O)Nc3ccc(Cl)cc3F)C(=O)N3C[C@H](O)C[C@H]3C(=O)N3CCCC[C@H]3C(=O)N[C@@H](C)C(=O)N2C1 [Compound 329, (S)-2-(3-(4-chloro-2-fluorophenyl)ureido)-3-(3,5-difluorophenyl)-N-((2R,6S,8aS,14aS,16R,20S,21S,23aS)-16-hydroxy-2,6,21-trimethyl-5,8,14,19,23-pentaoxooctadecahydro-1H,5H,14H,19H-pyrido[2,1-i]dipyrrolo[2,1-c:2′,1′-l][1]oxa[4,7,10,13]tetraazacyclo-hexadecin-20-yl)propanamide] ({NH(4-Cl-2-F-phenyl)-CO}-[Phe(3,5-F2)][aThr][Hyp][Pip]A[Pro(4R-Me)]; ester 2-C)	–	–	0.078 (≈ 0.0673 µg/mL)	–	7.32 ± 0.4	0.078 (≈ 0.0673 µg/mL)	0.039 (≈ 0.0336 µg/mL)	0.039 (≈ 0.0336 µg/mL)	–
C[C@H]1C[C@H]2C(=O)O[C@@H](C)[C@H](NC(=O)[C@H](Cc3cc(F)cc(F)c3)NC(=O)Nc3ccc(OC(F)(F)F)cc3)C(=O)N3CCC[C@H]3C(=O)N(C)[C@@H]([C@@H](C)O)C(=O)N[C@@H](C)C(=O)N2C1 [Compound 36, (S)-3-(3,5-difluorophenyl)-N-((2S,6S,9S,11aS,17S,18S,20aS)-9-((R)-1-hydroxyethyl)-2,6,10,18-tetramethyl-5,8,11,16,20-pentaoxohexadecahydro-1H,5H,16H-dipyrrolo[2,1-c:2′,1′-l][1]oxa[4,7,10,13]tetraazacyclohexadecin-17-yl)-2-(3-(4-(trifluoromethoxy)phenyl)ureido)propanamide] ({NH(4-OCF3-phenyl)-CO}-[Phe(3,5-F2)][aThr]P[NMeT]A[Pro(4S-Me)]; ester 2-C)	–	–	0.1 (≈ 0.0882 µg/mL)	–	6.4 ± 0.5	0.2 (≈ 0.176 µg/mL)	0.05 (≈ 0.0441 µg/mL)	0.1 (≈ 0.0882 µg/mL)	–
Cc1ccc(NC(=O)N[C@@H](Cc2cc(F)cc(F)c2)C(=O)N[C@@H]2C(=O)N3CCC[C@H]3C(=O)N(C)[C@@H]([C@H](C)O)C(=O)N[C@@H](C)C(=O)N3C[C@@H](C)C[C@H]3C(=O)O[C@H]2C)cc1 [Compound 202, (S)-3-(3,5-difluorophenyl)-N-((2S,6S,9S,11aS,17S,18S,20aS)-9-((S)-1-hydroxyethyl)-2,6,10,18-tetramethyl-5,8,11,16,20-pentaoxohexadecahydro-1H,5H,16H-dipyrrolo[2,1-c:2′,1′-L][1]oxa[4,7,10,13]tetraazacyclohexadecin-17-yl)-2-(3-(p-tolyl)ureido)propanamide] ({NH(4-Me-phenyl)-CO}-[Phe(3,5-F2)][aThr]P[NMeaThr]A[Pro(4S-Me)]; ester 2-C)	0.391 (≈ 0.317 µg/mL)	0.098 (≈ 0.0796 µg/mL)	0.195 (≈ 0.158 µg/mL)	0.195 (≈ 0.158 µg/mL)	–	–	–	–	6.6 ± 0.4
C[C@@H]1C[C@H]2C(=O)O[C@@H](C)[C@H](NC(=O)[C@H](Cc3cc(F)cc(F)c3)NC(=O)Nc3ccc(F)c(C#N)c3)C(=O)N3C[C@H](O)C[C@H]3C(=O)N3CCOC[C@H]3C(=O)N[C@@H](C)C(=O)N2C1 [Compound 326, (S)-2-(3-(3-cyano-4-fluorophenyl)ureido)-3-(3,5-difluorophenyl)-N-((6aS,8R,12S,13S,15aS,17R,21S,23aS)-8-hydroxy-13,17,21-trimethyl-6,11,15,20,23-pentaoxooctadecahydro-6H,11H,15H-[1,4]oxazino[3,4-i]dipyrrolo[2,1-c:2′,1′-l][1]oxa[4,7,10,13]tetraazacyclo-hexadecin-12-yl)propanamide] ({X1-CO}-[Phe(3,5-F2)][aThr][Hyp][Morpholine(3S-CO)]A[Pro(4R-Me)]; ester 2-C)	–	–	10 (≈ 8.55 µg/mL)	–	7.52 ± 0.3	1.25 (≈ 1.07 µg/mL)	2.5 (≈ 2.14 µg/mL)	20 (≈ 17.1 µg/mL)	–
CCc1ccc(NC(=O)N[C@@H](Cc2cc(F)cc(F)c2)C(=O)N[C@@H]2C(=O)N3C[C@H](O)C[C@H]3C(=O)N3CCOC[C@H]3C(=O)N[C@@H](C)C(=O)N3C[C@H](C)C[C@H]3C(=O)O[C@H]2C)cc1 [Compound 320, (S)-3-(3,5-difluorophenyl)-2-(3-(4-ethylphenyl)ureido)-N-((6aS,8R,12S,13S,15aS,17R,21S,23aS)-8-hydroxy-13,17,21-trimethyl-6,11,15,20,23-pentaoxooctadecahydro-6H,11H,15H-[1,4]oxazino[3,4-i]dipyrrolo[2,1-c:2′,1′-l][1]oxa[4,7,10,13]-tetraazacyclohexadecin-12-yl)propanamide] ({NH(4-Et-phenyl)-CO}-[Phe(3,5-F2)][aThr][Hyp][Morpholine(3S-CO)]A[Pro(4R-Me)]; ester 2-C)	–	–	0.156 (≈ 0.131 µg/mL)	–	7.48 ± 0.6	0.039 (≈ 0.0328 µg/mL)	0.156 (≈ 0.131 µg/mL)	0.625 (≈ 0.525 µg/mL)	–
C[C@@H]1C[C@H]2C(=O)O[C@@H](C)[C@H](NC(=O)[C@H](Cc3cc(F)cc(F)c3)NC(=O)Nc3ccc(F)c(C#N)c3)C(=O)N3CCC[C@H]3C(=O)N3CCCC[C@H]3C(=O)N[C@@H](C)C(=O)N2C1 [Compound 324, (S)-2-(3-(3-cyano-4-fluorophenyl)ureido)-3-(3,5-difluorophenyl)-N-((2R,6S,8aS,14aS,20S,21S,23aS)-2,6,21-trimethyl-5,8,14,19,23-pentaoxooctadecahydro-1H,5H,14H,19H-pyrido[2,1-i]dipyrrolo[2,1-c:2′,1′-l][1]oxa[4,7,10,13]tetraazacyclo-hexadecin-20-yl)propanamide] ({X1-CO}-[Phe(3,5-F2)][aThr]P[Pip]A[Pro(4R-Me)]; ester 2-C)	–	–	0.313 (≈ 0.262 µg/mL)	–	7.93 ± 0.3	1.25 (≈ 1.05 µg/mL)	0.313 (≈ 0.262 µg/mL)	0.625 (≈ 0.523 µg/mL)	–
